Measurements reported in US9833497B2, “Human originated EGF domain proteins and use of the same” (CHENGDU SOURCEBIO LIMITED-LIABILITY COMPANY, priority 2013, dated 2017).

How the values were obtained:
Format in all cases: cell-based
E. coli DH5α = assay: Antibacterial activity: MIC and growth curve against E. coli DH5α in 96-well plate; conditions: minimal inhibitory concentration against E. coli DH5α; 96-well plate, 5×10^5 CFU/mL, 37° C., judged after 8 h
Procedure, shortened: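 Log-phase DH5α (OD600 about 0.5, 37° C, 185 rpm in LB) was pelleted, resuspended in fresh LB and seeded at 5×10^5 CFU/mL with recombinant protein at 50, 25 and 12.5 μg/mL (two-fold series), in triplicate. Plates were shaken at 175 rpm, 37° C, and OD600 was read every 30 min. MIC was the lowest concentration with no growth.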

E. coli BL21 = assay: MIC against Gram-negative bacteria: E. coli BL21; conditions: 5×10^5 CFU/mL
Procedure, shortened: (§1)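 Two-fold serial dilutions of each purified human EGF domain protein, three replicate wells per level, were combined with bacteria at a final 5×10^5 CFU/mL in LB. Cultures were shaken at 175 rpm, 37° C. The MIC was taken as the minimum concentration preventing growth.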

Pseudomonas aeruginosa = assay: MIC against Gram-negative bacteria: Pseudomonas aeruginosa; conditions: 5×10^5 CFU/mL
Procedure, shortened: as §1

Klebsiella pneumonia = assay: MIC against Gram-negative bacteria: Klebsiella pneumonia; conditions: 5×10^5 CFU/mL
Procedure, shortened: as §1

Enterobacter cloacae = assay: MIC against Gram-negative bacteria: Enterobacter cloacae; conditions: 5×10^5 CFU/mL
Procedure, shortened: as §1

Aeromonas hydrophila = assay: MIC against Gram-negative bacteria: Aeromonas hydrophila; conditions: 5×10^5 CFU/mL
Procedure, shortened: as §1

Citrobacter diversus = assay: MIC against Gram-negative bacteria: Citrobacter diversus; conditions: 5×10^5 CFU/mL
Procedure, shortened: as §1

Moraxella catarrhalis = assay: MIC against Gram-negative bacteria: Moraxella catarrhalis; conditions: 5×10^5 CFU/mL
Procedure, shortened: as §1

Proteus mirabilis = assay: MIC against Gram-negative bacteria: Proteus mirabilis; conditions: 5×10^5 CFU/mL
Procedure, shortened: as §1

Proteus vulgaris = assay: MIC against Gram-negative bacteria: Proteus vulgaris; conditions: 5×10^5 CFU/mL
Procedure, shortened: as §1

Serratia marcescens = assay: MIC against Gram-negative bacteria: Serratia marcescens; conditions: 5×10^5 CFU/mL
Procedure, shortened: as §1

[1] = E. coli BL21, 96-well plate, 37° C., 10 h
[2] = Pseudomonas aeruginosa, 96-well plate, 37° C., 10 h
[3] = Klebsiella pneumonia, 96-well plate, 37° C., 10 h
[4] = Enterobacter cloacae, 96-well plate, 37° C., 10 h
[5] = Aeromonas hydrophila, 96-well plate, 37° C., 10 h
[6] = Citrobacter diversus, 96-well plate, 37° C., 10 h
[7] = Moraxella catarrhalis, 96-well plate, 37° C., 10 h
[8] = Proteus mirabilis, 96-well plate, 37° C., 10 h
[9] = Proteus vulgaris, 96-well plate, 37° C., 10 h
[10] = Serratia marcescens, 96-well plate, 37° C., 10 h
[11] = E. coli BL21, 10 h cultivation at 37° C.
[12] = P. aeruginosa, 10 h cultivation at 37° C.
[13] = K. pneumonia, 10 h cultivation at 37° C.
[14] = E. cloacae, 10 h cultivation at 37° C.
[15] = A. hydrophila, 10 h cultivation at 37° C.
[16] = C. diversus, 10 h cultivation at 37° C.
[17] = M. catarrhalis, 10 h cultivation at 37° C.
[18] = P. mirabilis, 10 h cultivation at 37° C.
[19] = P. vulgaris, 10 h cultivation at 37° C.
[20] = S. marcescens, 10 h cultivation at 37° C.

PRT597 (CDCNRAGTQKPICDPDTGMCRCREGVSGQRCDRCARGHSQEFPTCLQ; listed as Homo sapiens)
MIC (E. coli DH5α): 25 µg/mL
MIC E. coli BL21 (E. coli BL21; 96-well plate, 37° C., 10 h): 12.5 µg/mL
MIC P. aeruginosa (Pseudomonas aeruginosa; 96-well plate, 37° C., 10 h): 50 µg/mL
MIC K. pneumonia (Klebsiella pneumonia; 96-well plate, 37° C., 10 h): 12.5 µg/mL
MIC E. cloacae (Enterobacter cloacae; 96-well plate, 37° C., 10 h): 25 µg/mL
MIC A. hydrophila (Aeromonas hydrophila; 96-well plate, 37° C., 10 h): 50 µg/mL
MIC C. diversus (Citrobacter diversus; 96-well plate, 37° C., 10 h): 25 µg/mL
MIC M. catarrhalis (Moraxella catarrhalis; 96-well plate, 37° C., 10 h): 12.5 µg/mL
MIC P. mirabilis (Proteus mirabilis; 96-well plate, 37° C., 10 h): 50 µg/mL
MIC P. vulgaris (Proteus vulgaris; 96-well plate, 37° C., 10 h): 25 µg/mL
MIC S. marcescens (Serratia marcescens; 96-well plate, 37° C., 10 h): 12.5 µg/mL

PRT1285 (NQDDCRDHRCQNGAQCMDEVNSYSCLCAEGYSGQLCE; listed as Homo sapiens)
MIC (E. coli DH5α): 12.5 µg/mL
MIC against E. coli BL21 (E. coli BL21; [1]): 12.5 µg/mL
MIC against P. aeruginosa (Pseudomonas aeruginosa; [2]): 12.5 µg/mL
MIC against K. pneumonia (Klebsiella pneumonia; [3]): 100 µg/mL
MIC against E. cloacae (Enterobacter cloacae; [4]): 12.5 µg/mL
MIC against A. hydrophila (Aeromonas hydrophila; [5]): 25 µg/mL
MIC against C. diversus (Citrobacter diversus; [6]): 12.5 µg/mL
MIC against M. catarrhalis (Moraxella catarrhalis; [7]): 25 µg/mL
MIC against P. mirabilis (Proteus mirabilis; [8]): 50 µg/mL
MIC against P. vulgaris (Proteus vulgaris; [9]): 12.5 µg/mL
MIC against S. marcescens (Serratia marcescens; [10]): 50 µg/mL

PRT470 (KCPQPCRNGGKCIGKSKCKCSKGYQGDLCS; listed as Homo sapiens)
MIC (E. coli DH5α): 50 µg/mL
MIC against E. coli BL21 (E. coli BL21; 96-well plate, 37° C., 10 h): 12.5 µg/mL
MIC against P. aeruginosa (Pseudomonas aeruginosa; 96-well plate, 37° C., 10 h): 50 µg/mL
MIC against K. pneumonia (Klebsiella pneumonia; 96-well plate, 37° C., 10 h): 12.5 µg/mL
MIC against E. cloacae (Enterobacter cloacae; 96-well plate, 37° C., 10 h): 50 µg/mL
MIC against A. hydrophila (Aeromonas hydrophila; 96-well plate, 37° C., 10 h): 25 µg/mL
MIC against C. diversus (Citrobacter diversus; 96-well plate, 37° C., 10 h): 12.5 µg/mL
MIC against M. catarrhalis (Moraxella catarrhalis; 96-well plate, 37° C., 10 h): 25 µg/mL
MIC against P. mirabilis (Proteus mirabilis; 96-well plate, 37° C., 10 h): 50 µg/mL
MIC against P. vulgaris (Proteus vulgaris; 96-well plate, 37° C., 10 h): 12.5 µg/mL
MIC against S. marcescens (Serratia marcescens; 96-well plate, 37° C., 10 h): 50 µg/mL

PRT843 (CQCNGHGDPRRGHCDNLSGLCFCQDHTEGAHCQLCSPGYYGDPRAGGSCFR; listed as Homo sapiens)
MIC (E. coli DH5α): 25 µg/mL
MIC (μg/mL) E. coli BL21 (E. coli BL21; [11]): 12.5 µg/mL
MIC (μg/mL) P. aeruginosa (Pseudomonas aeruginosa; [12]): 12.5 µg/mL
MIC (μg/mL) K. pneumonia (Klebsiella pneumonia; [13]): 12.5 µg/mL
MIC (μg/mL) E. cloacae (Enterobacter cloacae; [14]): 25 µg/mL
MIC (μg/mL) A. hydrophila (Aeromonas hydrophila; [15]): 50 µg/mL
MIC (μg/mL) C. diversus (Citrobacter diversus; [16]): 25 µg/mL
MIC (μg/mL) M. catarrhalis (Moraxella catarrhalis; [17]): 12.5 µg/mL
MIC (μg/mL) P. mirabilis (Proteus mirabilis; [18]): 25 µg/mL
MIC (μg/mL) P. vulgaris (Proteus vulgaris; [19]): 25 µg/mL
MIC (μg/mL) S. marcescens (Serratia marcescens; [20]): 50 µg/mL

PRT151 (GCKYLSDINITRYNINCRENRACNELFHCQCDPGYAPPDCE; listed as Homo sapiens)
MIC (E. coli DH5α): 12.5 µg/mL
MIC (μg/mL) E. coli BL21 (E. coli BL21; [11]): 50 µg/mL
MIC (μg/mL) P. aeruginosa (Pseudomonas aeruginosa; [12]): 12.5 µg/mL
MIC (μg/mL) K. pneumonia (Klebsiella pneumonia; [13]): 50 µg/mL
MIC (μg/mL) E. cloacae (Enterobacter cloacae; [14]): 12.5 µg/mL
MIC (μg/mL) A. hydrophila (Aeromonas hydrophila; [15]): 50 µg/mL
MIC (μg/mL) C. diversus (Citrobacter diversus; [16]): 25 µg/mL
MIC (μg/mL) M. catarrhalis (Moraxella catarrhalis; [17]): 12.5 µg/mL
MIC (μg/mL) P. mirabilis (Proteus mirabilis; [18]): 25 µg/mL
MIC (μg/mL) P. vulgaris (Proteus vulgaris; [19]): 50 µg/mL
MIC (μg/mL) S. marcescens (Serratia marcescens; [20]): 12.5 µg/mL

PRT131 (AGHCSTYGHLCRNGGRCREKRRGVTCDCAFSAYDGPFCS; listed as Homo sapiens)
MIC (E. coli DH5α): 50 µg/mL
MIC (μg/mL) E. coli BL21 (E. coli BL21; [1]): 12.5 µg/mL
MIC (μg/mL) P. aeruginosa (Pseudomonas aeruginosa; [2]): 12.5 µg/mL
MIC (μg/mL) K. pneumonia (Klebsiella pneumonia; [3]): 12.5 µg/mL
MIC (μg/mL) E. cloacae (Enterobacter cloacae; [4]): 12.5 µg/mL
MIC (μg/mL) A. hydrophila (Aeromonas hydrophila; [5]): 12.5 µg/mL
MIC (μg/mL) C. diversus (Citrobacter diversus; [6]): 12.5 µg/mL
MIC (μg/mL) M. catarrhalis (Moraxella catarrhalis; [7]): 25 µg/mL
MIC (μg/mL) P. mirabilis (Proteus mirabilis; [8]): 100 µg/mL
MIC (μg/mL) P. vulgaris (Proteus vulgaris; [9]): 25 µg/mL
MIC (μg/mL) S. marcescens (Serratia marcescens; [10]): 12.5 µg/mL
